Values joined by “and” are separate entries in the source; they are usually repeats but may differ in a detail not shown here. Equal entries are not always repeated.
Tests used:
[1] = biological target: T1, KCa3.1 channel in A549-3R cells (Homo sapiens, UniProt O15554); experiment: Staining of fixed A549-3R tumor cells (Protocol 1), fluorescence microscopy; format: cell-based; conditions: 10 min, 4 °C
T1 construct: the non-small cell lung cancer cell line A549-3R with a high expression of the KCa3.1 channel was employed; endogenous in cells; host or cells: A549-3R cells
Protocol: For the fixation of the cells, the DMEM medium was removed from the glass bottom dish after incubation for 24 h, and the cells were washed with 1 mL of PBS. Subsequently, 1 mL of 4% paraformaldehyde in PBS solution was added to the glass bottom dish and the mixture was incubated for 30 min at room temperature. Thereafter, the cells were washed five times with 1 mL of PBS and used for the cell staining experiments.
After fixation of the cells (Section 2.10.2), 300 µL of the 10 µM staining solution was added to the glass bottom dish. The cells were incubated for 10 min at 4 °C in a dark chamber. After incubation, the cells were washed five times with 1 mL of PBS and used subsequently for fluorescence microscopy.
An Axiovert 200 inverted microscope (Carl Zeiss AG, Jena, Germany) with a ×100 oil immersion objective and a digital camera (SPOT RT SE from Diagnostic Instruments Inc., Livingston, UK) were used. The camera was controlled by MetaVue software (version 6.3r6, Visitron, Germany). Two different filter sets were employed, the FITC filter set (Carl Zeiss Filter Set 10 bandwidth excitation filter 450–490, color splitter 510, bandpass filter 515–565) and the TRITC filter set (Carl Zeiss Filter Set 15, bandpass excitation filter 546/12, dichroic mirror 580, emission filter Long Pass 590).
Using the free imaging software ImageJ (1.53f51, NIH, USA), squares with an edge length of 50 × 50 pixels, corresponding to an area of 9 µm^2, were randomly placed in a cell and signals with Full Width at Half Maximum (FWHM) of ≤5 pixels (~300 nm) were counted as a KCa3.1 channel. For the evaluation, 7 squares were analyzed.
For the staining experiments, the non-small cell lung cancer cell line A549-3R with a high expression of the KCa3.1 channel was employed. An optimized staining protocol (Protocol 1) described previously was followed to analyze the imaging properties of the fluorescent probes. In brief, the 10 µM solution of the senicapoc–dye conjugate in PBS was added to adherent A549-3R cells in a glass bottom dish and the set-up was incubated for 10 min at 4 °C in a dark chamber. After careful washing, the cells were analyzed with a fluorescence microscope.
The images were analyzed with respect to size and density of the fluorescent dots. For this purpose, a square with a size of 50 × 50 pixels was randomly placed on the cell images using ImageJ. The intensities of the signals within the square were analyzed to calculate the Full Width at Half Maximum (FWHM) for each selected dot, which represents a measure for the signal size. For the accurate representation of a single KCa3.1 channel, the FWHM should be in the range of five pixels. Signals with a FWHM of ≤5 pixels within the square were regarded as labeled KCa3.1 channels and the number of identified channels was used to determine the density of the ion channels on the cells (Figure S8, Supplementary Materials).

[2] = biological target: T1, KCa3.1 channel in A549-3R cells; experiment: Staining of permeabilized A549-3R cells (Protocol 5); format: cell-based
Protocol: After fixation of the cells (Section 2.10.2), 1 mL of permeabilization solution was added to the glass bottom dish. The cells were incubated for 30 min at 4 °C and afterwards washed three times with PBS. Subsequently, Protocol 1 was performed.
The specificity of the bodipy-labeled senicapoc derivative 10b was further analyzed via conducting co-staining experiments with antibodies. For staining with antibodies, A549-3R cells had to be permeabilized with saponin, since the antibody binds at the intracellular part of the ion channel only after entering the cell. […] For antibody-based immunofluorescence staining of the KCa3.1 channels of permeabilized A549-3R cells, various concentrations of the primary and secondary antibody were tested. Optimal images were obtained with a dilution of 1:300 for the primary antibody and 1:500 for the secondary antibody (see Figure S13, Supplementary Materials). The images obtained by immunofluorescence staining were analyzed as described above for the images with fluorescent probe 10b. This analysis led to a FWHM of 4.80 ± 0.83 pixels and a density of 1.75 ± 0.19 KCa3.1 channels/µm^2. […]

SMILES: CCC1=C(C)C2=C(c3ccc(OCCOCCn4cc(COc5ccc(C(C(N)=O)(c6ccccc6)c6ccc(F)cc6)cc5)nn4)cc3)c3c(C)c(CC)c(C)n3[B-](F)(OC)[N+]2=C1C (centres unmarked) [10b, 2-{4-[(1-{2-[4-(2,6-Diethyl-4-fluoro-4-methoxy-1,3,5,7-tetramethyl-4-bora-3a,4a-diaza-s-indacen-8-yl)phenoxy]ethoxyethyl}-1,2,3-triazol-4-yl)methoxy]phenyl}-2-(4-flluorophenyl)-2-phenylacetamide]
- staining pattern of fixed A549-3R tumor cells ([1]; 10 µM in PBS, Protocol 1): expected punctate staining pattern of the membrane
- FWHM of fluorescent dots ([1]; fixed A549-3R cells, 10 µM): 5.27 ± 0.22 pixels and 5.27 pixels
- density of labeled KCa3.1 channels ([1]; fixed A549-3R cells, 10 µM): 1.22 ± 0.26 KCa3.1 channels per µm^2 and 1.22 KCa3.1 channels per µm^2
- density of labeled KCa3.1 channels ([2]; permeabilized A549-3R cells): 1.15 ion channels/µm^2
- staining pattern of permeabilized A549-3R cells ([2]; saponin permeabilization, Protocol 5): expected punctate staining pattern

Reference: paper PMC11859423, “Fluorescent Probes to Image the KCa3.1 Channel in Tumor Cells” (Pharmaceutics, 2025)
